The experiment concerns the target T1, NLRP3 (Homo sapiens, UniProt Q96P20).
T1 construct: endogenous in cells; host or cells: THP-1 cells (IFN-γ differentiated, LPS primed, ATP stimulated)
The experiment is described as follows: IL-1β (interleukin-1β) secretion in IFN-γ-differentiated, LPS/ATP-stimulated THP-1 cells (half inhibition rate of NLRP3). The settings on record: IFN-γ 25 ng/mL, LPS 50 ng/mL, ATP 5 mM. The class given is cell-based. The procedure:
Remove THP-1 cells from liquid nitrogen and place in a 37° C. water bath until ice melt. Add the cells to 5 mL of warm cell culture medium and centrifuge at 1,000 rpm for 5 min. Discard the supernatant and resuspend and culture in a new cell culture medium.
THP-1 cells are cultured in the culture medium and passaged every 2-3 days.
2.1.1 Add 100 μL of cell suspension per well to the cell plate and incubate the cell plate in a 37° C., 5% CO2 incubator for 24 hours.
2.2.1 Discard the supernatant of IFN-γ differentiation after differentiation treatment. Add 100 μL of serum-free medium containing LPS (final concentration of 50 ng/mL) to the cell plate. The cell plates were incubated in a 37° C., 5% CO2 incubator for 4 h.
Place the cell plate in an incubator at 37° C. and 5% CO2 for 1 hour.
2.2.3 Add 20 μL of 6×ATP per well according to the plate map (final concentration 5 mM) and incubate the cell plate in a 37° C., 5% CO2 incubator for 1 h. Collect the supernatant (60 μL) and store at −20° C.
The capture antibody mAb Mt175 is diluted to 2 μg/mL with PBS (1:250) and added to the cell plate at 15 μL per well. Keep the plate overnight at 4° C.
2.4.1 Discard the coated antibody and wash 4 times with PBST.
2.4.3 Discard the blocking buffer and wash 4 times with PBST.
2.4.4 Add 25 μL of 2.2.3 collected supernatant sample per well and incubate for 2 h at room temperature.
2.4.5 Discard the samples and wash 4 times with PBST.
2.4.6 Add mAb7P10-biotin (concentration 0.5 ug/mL) to blocking buffer, add 15 μL per well to the cell plate, and incubate for 1 hour at room temperature.
2.4.7 Discard the antibody and wash 4 times with PBST.
2.4.8 Streptavidin-HRP was diluted 1:1000 in blocking buffer, 15 μL per well was added to the cell plate, and incubated for 1 hour at room temperature.
2.4.9 Discard streptavidin-HRP and wash 4 times with PBST.
2.4.10 Add 25 μL of HRP substrate (Surmodics-TMBW-0100-01) per well and incubate the cell plate until a blue product appears.
2.4.11 Add 25 μL of stop solution (Surmodics-LSTP-0100-01) per well, and the blue product turns yellow.
2.4.12 Read the cell plate at 450 nm with a microplate reader.

SMILES strings stand for the structures.

In general, IC50 refers to the concentration that inhibits the measured activity by half. Read a high IC50 as weaker potency.

T1 sequence (Q96P20 whole entry): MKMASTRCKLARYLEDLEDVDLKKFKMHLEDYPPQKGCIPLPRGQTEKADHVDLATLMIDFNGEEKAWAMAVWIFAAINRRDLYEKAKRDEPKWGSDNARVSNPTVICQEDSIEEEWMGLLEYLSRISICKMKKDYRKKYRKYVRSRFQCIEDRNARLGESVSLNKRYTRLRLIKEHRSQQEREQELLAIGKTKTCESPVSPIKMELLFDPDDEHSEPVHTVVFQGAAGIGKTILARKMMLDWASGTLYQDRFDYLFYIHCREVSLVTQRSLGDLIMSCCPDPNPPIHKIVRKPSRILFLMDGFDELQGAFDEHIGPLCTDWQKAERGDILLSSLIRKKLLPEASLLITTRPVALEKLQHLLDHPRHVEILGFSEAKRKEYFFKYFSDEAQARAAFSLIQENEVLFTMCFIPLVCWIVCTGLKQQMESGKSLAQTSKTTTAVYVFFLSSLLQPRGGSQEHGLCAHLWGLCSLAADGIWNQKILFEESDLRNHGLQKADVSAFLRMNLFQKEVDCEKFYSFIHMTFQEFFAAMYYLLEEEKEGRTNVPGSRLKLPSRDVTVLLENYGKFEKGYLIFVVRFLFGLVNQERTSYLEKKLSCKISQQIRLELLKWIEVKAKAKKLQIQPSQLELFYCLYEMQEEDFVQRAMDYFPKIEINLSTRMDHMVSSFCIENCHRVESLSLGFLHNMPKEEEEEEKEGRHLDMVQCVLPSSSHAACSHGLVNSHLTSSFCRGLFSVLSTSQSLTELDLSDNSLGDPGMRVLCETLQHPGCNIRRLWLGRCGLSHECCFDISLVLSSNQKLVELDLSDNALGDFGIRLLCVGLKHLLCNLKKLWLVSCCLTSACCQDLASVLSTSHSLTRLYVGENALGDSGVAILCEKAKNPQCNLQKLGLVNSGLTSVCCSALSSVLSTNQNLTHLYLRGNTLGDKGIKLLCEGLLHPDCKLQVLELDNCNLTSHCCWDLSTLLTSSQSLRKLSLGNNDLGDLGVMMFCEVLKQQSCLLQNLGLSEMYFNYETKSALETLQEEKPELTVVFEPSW

`Oc1cc(C(F)(F)F)ccc1-c1nnc(N[C@@H]2CCCC[C@H]2O)c2c1CCC2` [Embodiment 81, 2-(4-(((1R,2R)-2-hydroxycyclohexyl)amino)-6,7-dihydro-5H-cyclopenta[d]pyridazin-1-yl)-5-(trifluoromethyl)phenol]: it took 34.8 nM to reach half-maximal inhibition (IC50). On to `Cc1nc(N[C@@H]2CCCN(CC3CC3)C2)nnc1-c1ccc(C(F)(F)F)cc1O` [Embodiment 146], for which the IC50 was found to be 7.4 nM. Against the preceding compound, the IC50 is about 4.7-fold lower. To `COc1ccc2c(-c3ccc(C(F)(F)F)cc3O)nnc(N[C@@H]3CCCN(C)C3)c2c1` [Embodiment 118] belongs 2.9 nM; to `Cc1nc(N[C@@H]2CCCN(CC3(O)CC3)C2)nnc1-c1ccc(C(F)(F)F)cc1O` [Embodiment 134], 14 nM; to `Cc1nc(N[C@@H]2CCC[C@@H](O)C2)nnc1-c1ccc(C(F)(F)F)cc1O` [Embodiment 36, 2-(3-(((1R,3R)-3-hydroxycyclohexyl)amino)-5-methyl-1,2,4-triazin-6-yl)-5-(trifluoromethyl)phenol], 54.2 nM.

Take `Cc1nc(N[C@@H]2CCCN(C3CCC3)C2)nnc1-c1ccc(C(F)(F)F)cc1O` [Embodiment 142]: half-maximal inhibition (IC50) required 11.3 nM. Turning to `CN1CCC[C@@H](Nc2nnc(-c3ccc(C(F)(F)F)cc3O)c3cnccc23)C1` [Embodiment 30, (R)-2-(1-((1-methylpiperidin-3-yl)amino)pyrido[3,4-d]pyridazin-4-yl)-5-(trifluoromethyl)phenol], half-maximal inhibition (IC50) was put at 2.9 nM. Against the preceding compound, the IC50 is about 3.9-fold lower. `CN1CCC[C@@H](Nc2nnc(-c3ccc(C(F)(F)F)cc3O)c3ccncc23)C1` [Embodiment 31, (R)-2-(4-((1-methylpiperidin-3-yl)amino)pyrido[3,4-d]pyridazin-1-yl)-5-(trifluoromethyl)phenol] registered an IC50 of 2.2 nM. The result for `C[C@]1(O)C[C@@H](Nc2nnc(-c3ccc(C(F)(F)F)cc3O)c3ccccc23)C1` [Embodiment 65] reads 10.4 nM; that for `OCCN1CCC[C@@H](Nc2nnc(-c3ccc(Cl)cc3O)c3cc(F)ccc23)C1` [Embodiment 154], 3.2 nM. The compound `Cc1cc(C)c(-c2cnc(N[C@@H]3CCCN(CC(=O)N[C@H]4C[C@@](C)(O)C4)C3)nn2)c(O)c1` [Embodiment 25] showed a 50% inhibitory concentration (IC50) of 317 nM. To `CN1CCC[C@@H](Nc2nnc(-c3ccc(C(F)(F)F)cc3O)c3ccn(C)c23)C1` [Embodiment 113] belongs 16.1 nM; to `Cc1cc(C)c(-c2cnc(N[C@@H]3CCCN(CC(=O)N[C@@H](C)CO)C3)nn2)c(O)c1` [Embodiment 24, 2-((R)-3-((6-(2-hydroxy-4,6-dimethylphenyl)-1,2,4-triazin-3-yl)amino)piperidin-1-yl)-N—((S)-1-hydroxypropyl-2-yl)acetamide], 193 nM. To `CN1CCC[C@@H](Nc2nnc(-c3ccc(Cl)cc3O)c3ncccc23)C1` [Embodiment 124] belongs 20.6 nM; to `C[C@]1(O)C[C@@H](Nc2nnc(-c3ccc(C(F)(F)F)cc3O)c3ncccc23)C1` [Embodiment 76, 2-(5-(((cis)-3-hydroxy-3-methylcyclobutyl)amino)pyrido[2,3-d]pyridazin-8-yl)-5-(trifluoromethyl)phenol], 11.3 nM. The result for `CN1CCC[C@@H](Nc2nnc(-c3ccc(C(F)(F)F)cc3O)c3cc[nH]c23)C1` [Embodiment 20] reads 21.3 nM. Take `CN1CCC[C@@H](Nc2nnc(-c3ccc(C(F)(F)F)cc3O)c3cocc23)C1` [Embodiment 109]: the IC50 stood at 40.6 nM.

For `Cc1nc(N[C@@H]2CCCN(C(C)CO)C2)nnc1-c1ncc(C(F)(F)F)cc1O` (stereo partly drawn) [Embodiment 54, 2-(3-(((3R)-1-(1-hydroxypropyl-2-yl)piperidin-3-yl)amino)-5-methyl-1,2,4-triazin-6-yl)-5-(trifluoromethyl)pyridin-3-ol], the IC50 stood at 46.4 nM. The IC50 values of the last two compounds are within 1.5-fold of each other. To `Cc1cc(Cl)cc(O)c1-c1nnc(N[C@@H]2CCCN(C)C2)c2ccccc12` [Embodiment 29] belongs 5.1 nM; to `Cc1nc(N[C@@H]2CCCN(C(C)C)C2)nnc1-c1ccc(C(F)(F)F)cc1O` [Embodiment 144], 1.8 nM; to `C[C@]1(O)C[C@@H](Nc2nnc(-c3ccc(C(F)(F)F)cc3O)c3cc(F)ccc23)C1` [Embodiment 138], 4.7 nM. With `Cc1nc(N[C@@H]2CCCN(C3CC3)C2)nnc1-c1ccc(C(F)(F)F)cc1O` [Embodiment 141], the IC50 was found to be 1.5 nM.

Take `Cc1cc(C)c(-c2cnc(NC3CCCN4CCCC34)nn2)c(O)c1` [Embodiment 4, (R)-3,5-dimethyl-2-(9-((1,2,3,5,6,7,8,8a-octahydroindozine-9-yl)amino)-1,2,4-triazin-6-yl)phenol]: the IC50 was 32.1 nM. Against the preceding compound, the IC50 is about 21-fold higher. The compound `Cc1ccc(-c2nnc(N[C@@H]3CCCN(C)C3)c3ccccc23)c(O)c1` [Embodiment 27, (R)-5-methyl-2-(4-((1-methylpiperidin-3-yl)amino)phthalazin-1-yl)phenol] had an IC50 of 1.4 nM.

`CN1CCC[C@@H](Nc2nnc(-c3ccc(C(F)(F)F)cc3O)c3cccc(F)c23)C1` [Embodiment 119] had an IC50 of 5 nM.

`CN1CCC[C@@H](Nc2nnc(-c3ccc(Cl)cc3O)c3ccncc23)C1` [Embodiment 128] displayed an IC50 of 3 nM. Compared with the last compound, the IC50 is about 1.7-fold lower. As for `Cc1nc(N[C@@H]2CCCN(C)C2)nnc1-c1ccc(Cl)cc1O` [Embodiment 7, (R)-5-Chloro-2-(5-methyl-3-((1-methylpiperidin-3-yl)amino)-1,2,4-triazin-6-yl)phenol], half-maximal inhibition (IC50) was put at 1.2 nM. Compared with the last compound, the IC50 is about 2.5-fold lower.

Compound `Cc1cc(C)c(-c2cnc(N[C@@H]3CCCN(CC(=O)O)C3)nn2)c(O)c1` [Embodiment 3, (R)-2-(3-((6-(2-hydroxy-4,6-dimethylphenyl)-1,2,4-triazin-3-yl)amino)piperidin-1-yl)acetic acid] came in with an IC50 of 53.5 nM. Take `CN1CCC[C@@H](Nc2nnc(-c3ccc(C(F)(F)F)cc3O)c3c2ccn3C)C1` [Embodiment 114]: the half-maximal inhibitory concentration (IC50) is 31 nM.

In turn, `CN1CCC[C@@H](Nc2nnc(-c3ccc(C(F)(F)F)cc3O)c3occc23)C1` [Embodiment 15, (R)-2-(4-((1-methylpiperidin-3-yl)amino)furo[2,3-d]pyridazin-7-yl)-5-(trifluoromethyl)phenol] had an IC50 of 28 nM. In turn, `Oc1cc(C(F)(F)F)cc(F)c1-c1nnc(N[C@@H]2CCCC[C@H]2O)c2ncccc12` [Embodiment 140] yielded an IC50 of 9.5 nM. `CN1CCC[C@@H](Nc2nnc(-c3ccc(C(F)(F)F)cc3O)c3ccc(F)cc23)C1` [Embodiment 120] registered an IC50 of 4.1 nM. The result for `Cc1cc(C)c(-c2cnc(N[C@@H]3CCCN(CC(N)=O)C3)nn2)c(O)c1` [Embodiment 23, (R)-2-(3-((6-(2-hydroxy-4,6-dimethylphenyl)-1,2,4-triazin-3-yl)amino)piperidin-1-yl)acetamide] reads 376 nM; that for `CN1CCC[C@@H](Nc2nnc(-c3ccc(Cl)cc3O)c3ccccc23)C1` [Embodiment 28, (R)-5-chloro-2-(4-((1-methylpiperidin-3-yl)amino)phthalazin-1-yl)phenol], 1.1 nM. On to `C[C@]1(O)C[C@@H](Nc2nnc(-c3ccc(C(F)(F)F)cc3O)c3ccncc23)C1` [Embodiment 77, 2-(4-(((cis)-3-hydroxy-3-methylcyclobutyl)amino)pyrido[3,4-d]pyridazin-1-yl)-5-(trifluoromethyl)phenol], for which inhibition was half-maximal at 19.4 nM (IC50).

The values above are taken from patent publication US20250002470A1, “NITROGEN-CONTAINING COMPOUND, PREPARATION METHOD THEREFOR AND APPLICATION THEREOF” (ZHEJIANG AIXPLORER BIOTECH CO., LTD., priority 2021, published 2025).
